In patent publication US7597904B2, “Metalloproteinase inhibitory agent” (Nestec S.A., priority 2004, dated 2009):

Legend:
HT-29 cells [1] = assay: Proliferation assay of HT-29 cells with caseinate hydrolysates and fractions (neutral red, OD 540 nm); assay type: cell-based, human
Procedure: Culture of Human Intestinal Epithelial Cells (IECs) and Proliferation Assay
• Human colonic adenocarcinoma cell line HT29 (ATCC: HTB-38) from the American Type Culture Collection (ATCC, Manassas, Va.). • DMEM, high glucose (4.5 g/l), with stable glutamine (BioConcept, AMIMED, Allschwil, Switzerland)
Undifferentiated cells (passages 45-78) were maintained in glucose-containing DMEM supplemented with 10% FCS at 37° C. in a 5% CO2/air incubator. Culture medium was changed every two days until the cell monolayers reached 50% confluence. For stimulation assays, HT-29 cells were plated at 1.2*10^4 cells/well in 96-well flat-bottom plates. After incubation for 4 days, the amount of cells present in the wells before incubation with the samples was assessed adding neutral red solution in 4 wells and incubating the plate for 45 min. The HT-29 cells were then washed twice with serum-free media (inclusive the wells with neutral red solution). The wells colored with neutral red remained from now on free of any media.
HT-29 cells were then incubated 24 hours respectively in the presence of 80 μg (hydrolysed) sodium caseinate samples in 200 μl DMEM, in 200 μl serum-free medium (blank), in 200 μl medium with serum (positive control) or in 0.9% saline solution (negative control). […] The dye was finally extracted with 100 μl of an extraction solution and the optical density measured at 540 nm. The optical density measured correlates with the number of cells present in the wells.
The proliferation was calculated by the difference in absorbance between the cells having been incubated 24 hours with sodium caseinate samples, with serum-free medium, with medium containing serum or with 0.9% saline solution and the cells before incubation.
The difference in absorbance ΔA540 from the blank (cells incubated with serum-free medium) was normalized. The results were then expressed as percentage with respect to the blank. • Culture medium with serum: DMEM was supplemented with 10% decomplemented FCS and 1% Penicillin-Streptomycin. […]

HT-29 cells [2] = assay: Lactate dehydrogenase cytotoxicity test; assay type: cell-based, human; conditions: Table 4; HT-29, LDH released, 24 hours incubation
From the text: Lactate Dehydrogenase Cytotoxicity Test
Cell viability was rigorously measured according the manufacturer's recommendations (Roche Diagnostics). The test is based on the measurement of lactate dehydrogenase (LDH) activity released from the cytosol of damaged cells in the supernatant.
Most current assays for measuring cytotoxicity are based on alterations of plasma membrane permeability and the consequent release of cytoplasmic enzymes or the uptake of dyes, normally excluded by viable cells. We here chose to measure the lactate dehydrogenase (LDH) activity released from damaged cells.

## sodium caseinate
HT-29 cells [1]; HT-29 cells
  antiproliferative activity (in words): no activity
HT-29 cells [1]; Table 2, HT-29, 24 hours incubation, 80 μg sample in 200 μl DMEM
  % prolif (percentage of OD at 540 nm with respect to the control (−serum)): 93 +/− 12%
HT-29 cells [1]; Table 3, HT-29, active fraction with or without heat / enzyme treatment (alcalase, proteinase A)
  % prolif (percentage of OD at 540 nm with respect to the control (−serum)): 93 +/− 7%
HT-29 cells [2]
  cytotoxic potential, percentage of OD at 490 nm with respect to the control (lysate); row head % prolif: 9 +/− 3%
